From US20240075003A1, “Pelargonic Acid for Use Against Viral Infections” (priority 2021, published 2024)
Entries after “also recorded” stand apart in the source; their conditions may differ.

How the values were obtained:
[1] = tested on: Porcine Reproductive and Respiratory Syndrome virus (PRRS); assay: Cytopathic effect (CPE) in Vero cells infected with PRRS virus, MCFA mixtures added; assay type: cell-based; set-up: key: 4 = total destruction of the cells; 3 = medium destruction; 2 = low destruction; 1 = no destruction; details: 0.1% concentration in tissue culture, 5 days post infection
PED virus = assay type: cell-based, Porcine Epidemic Diarrhea virus
ASF = tested on: ASF; set-up: species or system African Swine Fever Virus
[2] = tested on: African Swine Fever Virus (ASFV)

Compound | CPE (first test) [1] | CPE (second test) [1] | Protection against viral infection and cytolytic effect of the cells (PED virus) | Viral load of ASF compared with ester form or untreated feed (ASF) | Cq value for ASFV compared to positive control [2]
CCCCCC(=O)O [100% C6, caproic acid] | 3/3 | 3/3 | – | – | –
CCCCCCCC(=O)O [100% C8, caprylic acid] | 2/2 | 2/2 | – | – | –
CCCCCCCCC(=O)O [100% C9, pelargonic acid] | 2/2 | 2/2 | gave the best results | significantly reduced the viral load | –
CCCCCCCCCC(=O)O [100% C10, capric acid] | 2 | 4 | – | – | –
CCCCCCCCC(=O)O [Composition F1, pelargonic acid] | – | – | – | – | significantly increase the Cq value; also recorded: induced a statistical increase in Cq value
